These results are taken from patent US20250025443A1, “COMPOUNDS AND METHODS FOR TREATING CORONA VIRUSES” (CLEAR CREEK BIO, INC., priority 2021, published 2025).

In the first assay the target is SARS-CoV-2 Papain-Like Protease (PLpro) (Severe acute respiratory syndrome coronavirus 2 (2019-nCoV) (SARS-CoV-2), UniProt P0DTD1). Nature of the assay: biochemical. The settings on record: PLpro enzymatic fluorescence assay; class symbols; read-out: PLpro IC50.
Take `Cc1ccc(OC[C@@H]2CCN2)cc1C(=O)NC1(c2cc(-c3cc4ccccc4s3)cc3ncccc23)CC1` [Compound 695, (S)-5-(Azetidin-2-ylmethoxy)-N-(1-(7-(benzo[b]thiophen-2-yl)quinolin-5-yl)cyclopropyl)-2-methylbenzamide]: the IC50 is less than 100 nM.

On to `CC#Cc1cc(C2(NC(=O)c3cc(OC[C@@H]4CCN4)ccc3C)CC2)c2cccnc2c1` [Compound 696, (S)-5-(Azetidin-2-ylmethoxy)-2-methyl-N-(1-(7-(prop-1-yn-1-yl)quinolin-5-yl)cyclopropyl)benzamide], for which the IC50 is less than 100 nM.

Consider `C#Cc1cc(C2(NC(=O)c3cc(OC[C@@H]4CCN4)ccc3C)CC2)c2cccnc2c1` [Compound 697, (S)-5-(Azetidin-2-ylmethoxy)-N-(1-(7-ethynylquinolin-5-yl)cyclopropyl)-2-methylbenzamide], for which the IC50 is less than 100 nM.

With `Cc1ncc(-c2cc(C3(NC(=O)c4cc(OC[C@@H]5CCN5)ccc4C)CC3)c3cccnc3c2)o1` [Compound 698, (S)-5-(Azetidin-2-ylmethoxy)-2-methyl-N-(1-(7-(2-methyloxazol-5-yl)quinolin-5-yl)cyclopropyl)benzamide], the IC50 was less than 100 nM.

On to `Cc1ccc(OC[C@@H]2CCN2C)cc1C(=O)NC1(c2cc(-c3cncc(N4CCOCC4)c3)cc3ncccc23)CC1` [Compound 699, (S)-2-Methyl-5-((1-methylazetidin-2-yl)methoxy)-N-(1-(7-(5-morpholinopyridin-3-yl)quinolin-5-yl)cyclopropyl)benzamide], for which the IC50 is less than 100 nM.

For the compound `Cc1ccc(OC[C@@H]2CCN2C)cc1C(=O)NC1(c2cc(-c3ccc4ncnn4c3)cc3ncccc23)CC1` [Compound 700, (S)—N-(1-(7-([1,2,4]Triazolo[1,5-a]pyridin-6-yl)quinolin-5-yl)cyclopropyl)-2-methyl-5-((1-methylazetidin-2-yl)methoxy)benzamide], the IC50 was less than 100 nM.

In the case of `Cc1ccc(OC[C@@H]2CCN2C)cc1C(=O)NC1(c2cc(-c3cnc(N4CCCCC4)nc3)cc3ncccc23)CC1` [Compound 701, (S)-2-Methyl-5-((1-methylazetidin-2-yl)methoxy)-N-(1-(7-(2-(piperidin-1-yl)pyrimidin-5-yl)quinolin-5-yl)cyclopropyl)benzamide], the IC50 is less than 100 nM.

As for `Cc1ccc(OC[C@@H]2CCN2C)cc1C(=O)NC1(c2cc(-c3ccc4nccn4c3)cc3ncccc23)CC1` [Compound 702, (S)—N-(1-(7-(Imidazo[1,2-a]pyridin-6-yl)quinolin-5-yl)cyclopropyl)-2-methyl-5-((1-methylazetidin-2-yl)methoxy)benzamide], the IC50 is less than 100 nM.

`Cc1cccc(/C=C/c2cc(C3(NC(=O)c4cc(OC[C@@H]5CCN5)ccc4C)CC3)c3cccnc3c2)c1` [Compound 704, (S,E)-5-(Azetidin-2-ylmethoxy)-2-methyl-N-(1-(7-(3-methylstyryl)quinolin-5-yl)cyclopropyl)benzamide]: the IC50 was less than 100 nM.

`Cc1ccc(OC[C@@H]2CCN2)cc1C(=O)NC1(c2cc(-c3nc4ccccc4o3)cc3ncccc23)CC1` [Compound 711, (S)-5-(Azetidin-2-ylmethoxy)-N-(1-(7-(benzo[d]oxazol-2-yl)quinolin-5-yl)cyclopropyl)-2-methylbenzamide]: the IC50 was less than 100 nM.

`Cc1ccc(OC[C@@H]2CCN2)cc1C(=O)NC1(c2cc(-c3cnoc3)cc3ncccc23)CC1` [Compound 714, (S)-5-(Azetidin-2-ylmethoxy)-N-(1-(7-(isoxazol-4-yl)quinolin-5-yl)cyclopropyl)-2-methylbenzamide]: the IC50 is less than 100 nM.

Still in this assay, the particulars now being: SARS-CoV-2 PLpro enzymatic fluorescence assay; read-out: PLpro IC50.
On to `C=Cc1cc(C2(NC(=O)c3cc(OC[C@@H]4CCCN4)ccc3C)CC2)c2cccnc2c1` [Compound 713, (S)-2-Methyl-5-(pyrrolidin-2-ylmethoxy)-N-(1-(7-vinylquinolin-5-yl)cyclopropyl)benzamide], for which the IC50 is less than 100 nM.

Usually IC50 stands for the concentration needed to halve the response being measured.
